Laboratory results from BigSolDB 2.1.

CC(C)OC(=O)[C@H](C)N[P@](=O)(OC[C@H]1O[C@@H](n2ccc(=O)[nH]c2=O)[C@](C)(F)[C@@H]1O)Oc1ccccc1
solubility (mole fraction)
Details	278.15 K	283.15 K	288.15 K	293.15 K	298.15 K	303.15 K	308.15 K	313.15 K	318.15 K
in acetone	0.0275	0.0343	0.0435	0.0538	0.066	0.0796	0.0951	0.113	0.134
in acetonitrile	0.00484	0.00629	0.00812	0.0101	0.0127	0.0156	0.019	0.0234	0.0286
in cyclohexane	–	6.09e-07	9.4e-07	1.44e-06	2.09e-06	3.05e-06	4.33e-06	6.11e-06	8.66e-06
in ethanol	0.022	0.0274	0.0342	0.0416	0.0505	0.0599	0.0712	0.0842	0.0997
in ethyl acetate	0.00263	0.00362	0.00486	0.00641	0.0084	0.0108	0.0139	0.0178	0.0228
in n-butanol	0.00935	0.0116	0.0144	0.0182	0.0225	0.0278	0.034	0.0413	0.0501
in toluene	4.46e-06	7.43e-06	1.1e-05	1.75e-05	2.67e-05	4.02e-05	6.15e-05	9.44e-05	0.000144
in water	1.18e-05	1.85e-05	2.59e-05	3.65e-05	5.05e-05	7.02e-05	9.6e-05	0.000131	0.00017
